{"source": "paper PMC3112249", "about": "(Cancer chemotherapy and pharmacology, 2011)", "key": {"[1]": {"type": "in vivo, human", "conditions": "paclitaxel 100 mg/m^2 IV over 3 h, cycle 1; patients taking protease inhibitors"}, "[2]": {"conditions": "107 male patients, paclitaxel 100 mg/m^2 intravenously over 3 hours every 2 weeks, 77% received protease inhibitors; cited from earlier work"}, "[3]": {"system": "HIV-associated Kaposi's sarcoma", "experiment": "Objective response, progression-free survival and survival on paclitaxel", "type": "in vivo, human"}, "[4]": {"conditions": "cited from earlier work"}, "[5]": {"conditions": "20 evaluable patients, no prior paclitaxel, 100 mg/m^2 IV every 14 days"}}, "data": [{"molecule": "CC(=O)O[C@H]1C(=O)[C@@]2(C)[C@H]([C@H](OC(=O)c3ccccc3)[C@]3(O)C[C@H](OC(=O)[C@H](O)[C@@H](NC(=O)c4ccccc4)c4ccccc4)C(C)=C1C3(C)C)[C@]1(OC(C)=O)CO[C@@H]1C[C@@H]2O", "note": "[Paclitaxel]", "values": [{"measurement": "duration spent at a paclitaxel concentration > 0.05 μM", "setting": "[1]", "result": "19.0 (3.0–27.8) hr"}, {"measurement": "differences in the incidence or severity of toxicity, patients receiving protease inhibitors compared to those who did not", "setting": "[2]", "result": "No differences"}, {"measurement": "best response: partial response, patients", "setting": "[3]; [5]", "result": 30, "unit": "%"}, {"measurement": "best response: progressive disease, patients", "setting": "[3]; [5]", "result": 10, "unit": "%"}, {"measurement": "best response: stable disease (SD), patients", "setting": "[3]; [5]", "result": 50, "unit": "%"}, {"measurement": "objective response, patients", "setting": "[3]; 20 patients assessable for response", "result": 30, "unit": "%"}, {"measurement": "three year survival rate", "setting": "[3]; 20 patients, no prior paclitaxel", "result": 67, "unit": "%"}, {"measurement": "median progression free survival", "setting": "[3]; 20 patients, no prior paclitaxel, 100 mg/m^2 IV every 14 days", "result": 7.8, "unit": "months"}, {"measurement": "median overall survival", "setting": "[3]; 20 patients, no prior paclitaxel, median follow-up of 50 months in the 13 surviving patients", "result": "had not been reached"}, {"measurement": "treatment-related infection of grade 3 or higher, patients", "setting": "20 patients, paclitaxel as first line therapy", "result": 15, "unit": "%"}, {"measurement": "Infection Grade 3, patients no. (%)", "setting": "PI (n=15)", "result": "3 (20%)"}, {"measurement": "Abdominal cramps Grade 3, patients no. (%)", "setting": "human, in vivo", "result": "1 (7%)"}, {"measurement": "Anemia Grade 3, patients no. (%)", "setting": "human, in vivo", "result": "2 (13%)"}, {"measurement": "Anemia Grade 4, patients no. (%)", "setting": "human, in vivo", "result": "1 (7%)"}, {"measurement": "Cardiac toxicity Grade 4, patients no. (%)", "setting": "human, in vivo", "result": "1 (5%)"}, {"measurement": "Eye irritation Grade 3, patients no. (%)", "setting": "human, in vivo", "result": "1 (7%)"}, {"measurement": "Fatigue Grade 3, patients no. (%)", "setting": "human, in vivo", "result": "2 (13%)"}, {"measurement": "GU toxicity Grade 3, patients no. (%)", "setting": "human, in vivo", "result": "1 (7%)"}, {"measurement": "Granulocytopenia Grade 3, patients no. (%)", "setting": "human, in vivo", "result": "3 (20%)"}, {"measurement": "Ileus Grade 4, patients no. (%)", "setting": "human, in vivo", "result": "1 (7%)"}, {"measurement": "Leukopenia Grade 4, patients no. (%)", "setting": "human, in vivo", "result": "1 (20%)"}, {"measurement": "Liver toxicity Grade 3, patients no. (%)", "setting": "human, in vivo", "result": "1 (7%)"}, {"measurement": "Liver toxicity Grade 4, patients no. (%)", "setting": "human, in vivo", "result": "1 (7%)"}, {"measurement": "Metabolic toxicity Grade 3, patients no. (%)", "setting": "human, in vivo", "result": "1 (7%)"}, {"measurement": "Metabolic toxicity Grade 4, patients no. (%)", "setting": "human, in vivo", "result": "1 (7%)"}, {"measurement": "Neuro-motor toxicity Grade 3, patients no. (%)", "setting": "human, in vivo", "result": "1 (7%)"}, {"measurement": "Pulmonary toxicity Grade 3, patients no. (%)", "setting": "human, in vivo", "result": "1 (7%)"}, {"measurement": "Pulmonary toxicity Grade 4, patients no. (%)", "setting": "human, in vivo", "result": "1 (20%)"}, {"measurement": "Skin toxicity Grade 3, patients no. (%)", "setting": "human, in vivo", "result": "1 (20%)"}, {"measurement": "Thrombocytopenia Grade 4, patients no. (%)", "setting": "human, in vivo", "result": "1 (7%)"}, {"measurement": "WORST DEGREE of toxicity Grade 3, patients no. (%)", "setting": "human, in vivo", "result": "7 (47%)"}, {"measurement": "treatment-related anemia of grade 3 or higher, patients", "setting": "human, in vivo", "result": 15, "unit": "%"}, {"measurement": "treatment-related granulocytopenia of grade 3 or higher, patients", "setting": "human, in vivo", "result": 40, "unit": "%"}]}, {"molecule": "O=P1(N(CCCl)CCCl)NCCCO1", "note": "(centres unmarked) [cyclophosphamide]", "values": [{"measurement": "clearance reduced compared to historical controls", "setting": "[4]; 29 patients receiving CHOP chemotherapy with HAART", "result": 1.5, "unit": "fold"}]}, {"molecule": "COc1cccc2c1C(=O)c1c(O)c3c(c(O)c1C2=O)C[C@@](O)(C(=O)CO)C[C@@H]3O[C@H]1C[C@H](N)[C@H](O)[C@H](C)O1", "note": "[doxorubicin]", "values": [{"measurement": "effects on clearance", "setting": "[4]; human, in vivo", "result": "No significant effects"}]}]}
